The target in assay [1] is T1, human seritonin transporter (Homo sapiens, UniProt P31645).
T1 construct: host or cells: HEK-293
Put plainly: hSERT receptor binding ([125I]-RTI-55 radioligand binding). Conditions: membranes of HEK-293 cells transfected with human seritonin transporter, IC50 converted to Ki by Cheng-Prusoff, read-out: SERT (Ki).

The target in assay [2] is T2, human norepinephrine transporter (Homo sapiens, UniProt P23975).
T2 construct: host or cells: HEK-293
Put plainly: hNET receptor binding ([125I]-RTI-55 radioligand binding). Conditions: membranes of HEK-293 cells transfected with human norepinephrine transporter, IC50 converted to Ki by Cheng-Prusoff, read-out: hNET (Ki). A digest of the protocol: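 Membranes from HEK-293 cells transfected with human NET. Nonspecific binding defined with 10 μM desipramine, duplicates. IC50 by nonlinear regression, converted to Ki with Cheng-Prusoff.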

The record followed here is patent US7659394B2 (Pfizer Inc, priority 2004, dated 2010).

T1 sequence (P31645 whole entry): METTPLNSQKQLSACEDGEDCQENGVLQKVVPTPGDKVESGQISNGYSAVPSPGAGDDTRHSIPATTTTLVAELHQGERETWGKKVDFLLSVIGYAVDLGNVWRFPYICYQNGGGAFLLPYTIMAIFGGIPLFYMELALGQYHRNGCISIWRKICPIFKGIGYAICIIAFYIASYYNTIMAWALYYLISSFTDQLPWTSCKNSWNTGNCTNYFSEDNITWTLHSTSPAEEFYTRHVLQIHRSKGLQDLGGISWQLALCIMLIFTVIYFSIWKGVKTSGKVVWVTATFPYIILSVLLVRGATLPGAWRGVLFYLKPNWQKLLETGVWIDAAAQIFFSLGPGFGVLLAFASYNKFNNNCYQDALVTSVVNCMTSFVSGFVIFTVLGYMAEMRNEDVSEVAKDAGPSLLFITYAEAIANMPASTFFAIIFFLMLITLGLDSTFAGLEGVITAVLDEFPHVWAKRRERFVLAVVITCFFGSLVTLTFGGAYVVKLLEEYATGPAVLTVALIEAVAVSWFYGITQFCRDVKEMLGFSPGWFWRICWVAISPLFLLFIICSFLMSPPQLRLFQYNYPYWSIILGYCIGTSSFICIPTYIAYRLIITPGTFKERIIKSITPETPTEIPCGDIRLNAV
T2 sequence (P23975 whole entry): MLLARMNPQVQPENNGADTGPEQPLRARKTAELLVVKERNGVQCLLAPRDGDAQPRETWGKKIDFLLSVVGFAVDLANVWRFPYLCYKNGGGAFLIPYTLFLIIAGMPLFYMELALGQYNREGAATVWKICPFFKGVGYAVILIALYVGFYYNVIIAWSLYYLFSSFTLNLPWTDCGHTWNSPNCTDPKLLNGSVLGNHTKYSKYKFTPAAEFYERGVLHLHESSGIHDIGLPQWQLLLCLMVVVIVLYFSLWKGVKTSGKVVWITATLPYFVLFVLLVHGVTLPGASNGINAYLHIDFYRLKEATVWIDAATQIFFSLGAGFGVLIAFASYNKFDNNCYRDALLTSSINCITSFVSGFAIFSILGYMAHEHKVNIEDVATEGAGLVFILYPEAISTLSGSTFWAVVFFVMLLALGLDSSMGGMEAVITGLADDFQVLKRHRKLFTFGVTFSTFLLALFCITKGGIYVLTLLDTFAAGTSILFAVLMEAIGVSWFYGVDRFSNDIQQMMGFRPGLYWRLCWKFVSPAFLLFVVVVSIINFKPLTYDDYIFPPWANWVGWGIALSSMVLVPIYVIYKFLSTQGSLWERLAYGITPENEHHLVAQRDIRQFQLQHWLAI

Turning to `CCCc1ccccc1O[C@@H](c1ccccc1)[C@@H]1CNCCO1` [Example 97, (2S)-2-[(S)-phenyl(2-propylphenoxy)methyl]morpholine], the figures for the Ki in assay [1] and in assay [2] were 471 nM and 9 nM, respectively.

For `CCc1ccccc1O[C@@H](c1ccccc1)[C@@H]1CNCCO1` [Example 98, (2S)-2-[(S)-(2-ethylphenoxy)(phenyl)methyl]morpholine], the Ki in assay [1] turned out to be 1140 nM; in assay [2], 22 nM.

With `c1ccc(COc2ccccc2O[C@@H](c2ccccn2)[C@@H]2CNCCO2)cc1` [Example 102, (2S)-2-[(S)-[2-(benzyloxy)phenoxy](pyridin-2-yl)methyl]morpholine], the Ki in assay [1] is 5740 nM; in assay [2], 82 nM.

For `CC(C)c1ccccc1O[C@@H](c1ccccn1)[C@@H]1CNCCO1` [Example 103, (2S)-2-[(S)-(2-isopropylphenoxy)(pyridin-2-yl)methyl]morpholine], the Ki was determined as 6070 nM in assay [1] and 13 nM in assay [2].

In the case of `CCOc1ccccc1O[C@@H](c1cccc(C)n1)[C@@H]1CNCCO1` [Example 107, (2S)-2-[(S)-(2-ethoxyphenoxy)(6-methylpyridin-2-yl)methyl]morpholine], the Ki in assay [1] is 3670 nM; in assay [2] it was 27 nM.

In the case of `CCOc1ccccc1O[C@@H](c1cccc(OC)n1)[C@@H]1CNCCO1` [Example 108, (2S)-2-[(S)-(2-ethoxyphenoxy)(6-methoxypyridin-2-yl)methyl]morpholine], the results for the Ki in assay [1] and in assay [2] were 676 nM and 28 nM, respectively.

For `COc1cccc([C@H](Oc2ccccc2OC(F)(F)F)[C@@H]2CNCCO2)n1` [Example 109, (2S)-2-{(S)-(6-methoxypyridin-2-yl)[2-(trifluoromethoxy)phenoxy]methyl}morpholine], the inhibition constant (Ki) in assay [1] amounted to 364 nM; in assay [2], 16 nM.

Consider `c1ccc([C@H](Oc2cccc3c2CCC3)[C@@H]2CNCCO2)nc1` [Example 110, (2S)-2-[(S)-(2,3-dihydro-1H-inden-4-yloxy)(pyridin-2-yl)methyl]morpholine], for which the Ki in assay [1] worked out at 356 nM; in assay [2], 8.57 nM.

As for `Fc1ccc(C(Oc2c(F)cccc2F)[C@H]2CNCCO2)cc1` (stereo partly drawn) [Example 111, (2R)-2-[(2,6-difluorophenoxy)(4-fluorophenyl)methyl]morpholine], the Ki is 237 nM in assay [1] and 105 nM in assay [2].

In the case of `Brc1ccccc1OC(c1ccccc1)[C@H]1CNCCO1` (stereo partly drawn) [Example 112, (2R)-2-[(2-bromophenoxy)(phenyl)methyl]morpholine], the Ki was 105 nM in assay [1] and 17 nM in assay [2].

As to `Fc1cccc(Cl)c1O[C@@H](c1ccccc1)[C@@H]1CNCCO1` [Example 113, (2S)-2-[(S)-(2-chloro-6-fluorophenoxy)(phenyl)methyl]morpholine], the Ki in assay [1] worked out at 71 nM; in assay [2], 15 nM.

As for `c1ccc(C(Oc2ccccc2C2CC2)[C@H]2CNCCO2)cc1` (stereo partly drawn) [Example 114, (2R)-2-[(2-cyclopropylphenoxy)(phenyl)methyl]morpholine], the Ki in assay [1] amounted to 75 nM; in assay [2], 35 nM.

On to `Fc1ccc(Oc2ncccc2O[C@@H](c2ccccc2)[C@@H]2CNCCO2)cc1` [Example 116, (2S)-2-[(S)-{[2-(4-fluorophenoxy)pyridin-3-yl]oxy}(phenyl)methyl]morpholine], for which the Ki in assay [1] worked out at 1330 nM; in assay [2] it was 63 nM.

As for `CCOc1ccccc1OC(C1CC1)[C@@H]1CNCCO1` (stereo partly drawn) [Example 118, (2S)-2-[cyclopropyl(2-ethoxyphenoxy)methyl]morpholine], the Ki was at least 10000 nM in assay [1] and 1140 nM in assay [2].

Take `Fc1ccc(O[C@@H](c2ccccc2)[C@@H]2CNCCO2)c(C2CC2)c1` [Example 119, (2S)-2-[(S)-(2-cyclopropyl-4-fluorophenoxy)(phenyl)methyl]morpholine]: the figures for the Ki in assay [1] and in assay [2] were 66 nM and 23 nM, respectively.

On to `Fc1cc(F)c(O[C@@H](c2ccccc2)[C@@H]2CNCCO2)c(C2CC2)c1` [Example 122, (2S)-2-[(S)-(2-cyclopropyl-4,6-difluorophenoxy)(phenyl)methyl]morpholine], for which the Ki in assay [1] was 44 nM; in assay [2], 11 nM.

On to `CCc1ncccc1O[C@@H](c1ccccc1)[C@@H]1CNCCO1` [Example 124, (2S)-2-[(S)-[(2-ethylpyridin-3-yl)oxy](phenyl)methyl]morpholine], for which the Ki in assay [1] is 346 nM; in assay [2], 30 nM.

`N#Cc1ccccc1O[C@@H](c1ccccn1)[C@@H]1CNCCO1` [Example 125, 2-[(S)-(2S)-morpholin-2-yl(pyridin-2-yl)methoxy]benzonitrile]: the Ki in assay [1] is at least 10000 nM; in assay [2], 11 nM.

In the case of `CC(C)Oc1ccccc1O[C@@H](c1ccccn1)[C@@H]1CNCCO1` [Example 126, (2S)-2-[(S)-(2-isopropoxyphenoxy)(pyridin-2-yl)methyl]morpholine], the Ki in assay [1] was at least 10000 nM; in assay [2], 32 nM.

Consider `CCCc1ccccc1O[C@@H](c1ccccn1)[C@@H]1CNCCO1` [Example 127, (2S)-2-[(S)-(2-propylphenoxy)(pyridin-2-yl)methyl]morpholine], for which the Ki in assay [1] is 6280 nM; in assay [2], 7 nM.

`c1ccc(Cc2ccccc2O[C@@H](c2ccccn2)[C@@H]2CNCCO2)cc1` [Example 128, (2S)-2-[(S)-(2-benzylphenoxy)(pyridin-2-yl)methyl]morpholine]: the Ki in assay [1] amounted to 3320 nM; in assay [2] it was 11 nM.

Take `FC(F)(F)Oc1ccccc1O[C@@H](c1ccccn1)[C@@H]1CNCCO1` [Example 129, (2S)-2-{(S)-pyridin-2-yl[2-(trifluoromethoxy)phenoxy]methyl}morpholine]: the Ki in assay [1] was 4470 nM; in assay [2], 8 nM.

Consider `Cc1ccc(C(C)C)c(O[C@@H](c2ccccn2)[C@@H]2CNCCO2)c1` [Example 130, (2S)-2-[(S)-(2-isopropyl-5-methylphenoxy)(pyridin-2-yl)methyl]morpholine], for which the Ki in assay [1] is 7060 nM; in assay [2] it was 457 nM.

As for `Cc1ncccc1O[C@@H](c1ccccc1)[C@@H]1CNCCO1` [Example 131, (2S)-2-[(S)-[(2-methylpyridin-3-yl)oxy](phenyl)methyl]morpholine], the Ki came to 99 nM in assay [1] and 388 nM in assay [2].

Consider `c1ccc([C@H](Oc2ccccc2C2CCCC2)[C@@H]2CNCCO2)nc1` [Example 132, (2S)-2-[(S)-(2-cyclopentylphenoxy)(pyridin-2-yl)methyl]morpholine], for which the Ki in assay [1] is 6120 nM; in assay [2], 18 nM.

`FC(F)(F)c1ccccc1O[C@@H](c1ccccn1)[C@@H]1CNCCO1` [Example 133, (2S)-2-{(S)-pyridin-2-yl[2-(trifluoromethyl)phenoxy]methyl}morpholine]: the results for the Ki in assay [1] and in assay [2] were 9060 nM and 1460 nM, respectively.

As for `CCCc1ncccc1O[C@@H](c1ccccc1)[C@@H]1CNCCO1` [Example 135, (2S)-2-{(S)-phenyl[(2-propylpyridin-3-yl)oxy]methyl}morpholine], the Ki was found to be 4480 nM in assay [1] and 32 nM in assay [2].

Consider `CCOc1ncccc1O[C@@H](c1ccccc1)[C@@H]1CNCCO1` [Example 137, (2S)-2-[(S)-[(2-ethoxypyridin-3-yl)oxy](phenyl)methyl]morpholine], for which the Ki in assay [1] is 1810 nM; in assay [2] it was 9 nM.
